The source of these data is patent US11214803B2, “Modulators of YAP1 expression” (Ionis Pharmaceuticals, Inc., priority 2019, dated 2022).

Strand notation (5' to 3'): a small letter for the sugar, then the base; units joined by * are phosphorothioate-linked, units joined directly phosphodiester-linked; [ ] holds rarer units or linkages, { } end groups; capitals alone tell only the bases. e = 2'-O-(2-methoxyethyl) (MOE); k = constrained ethyl (cEt); [5mC] = 5-methylcytosine; d = 2'-deoxy (DNA)

One series has as its system Yap1 mRNA. The series is described as follows: Antisense inhibition of human Yap1 in SNU-449 cells by modified oligonucleotides, single dose (Example 5, RTS36584). To be noted: Table 43 experiment; SNU-449 cells, 10,000 cells per well, free uptake, 2,000 nM, approximately 48 hours; RTS36584; Yap1 mRNA normalized to RIBOGREEN, relative to untreated control cells. The series is classed as cell-based. Here is the method: Modified oligonucleotides with additional chemistry modifications were designed to target a Yap1 nucleic acid and were tested for their effect on Yap1 mRNA level in SNU-449 cells. The modified oligonucleotides were tested in a series of experiments that had similar culture conditions. Cultured SNU-449 cells at a density of 10,000 cells per well were treated using free uptake with 2,000 nM of modified oligonucleotide. After a treatment period of approximately 48 hours, RNA was isolated from the cells and Yap1 mRNA levels were measured by quantitative real-time RTPCR. Human primer probe set RTS36584 was used to measure mRNA levels. Yap1 mRNA levels were normalized to total RNA content, as measured by RIBOGREEN®. Results are presented in the tables below as percent control of the amount of Yap1 mRNA relative to untreated control cells (% UTC). The modified oligonucleotides with percent control values marked with an asterisk (*) target the amplicon region of the primer probe set. Additional assays may be used to measure the potency and efficacy of the modified oligonucleotides targeting the amplicon region.
Several different chemistry modifications were tested, which are specified in the Chemistry Notation column of the tables below, wherein the notation “d” refers to a 2′-deoxyribose sugar, the notation “s” refers to a phosphorothioate (P═S) internucleoside linkage, the notation “k” refers to a cEt modified sugar, the notation “y” refers to a 2′-O-methyl ribose sugar, the notation “e” refers to a MOE modified sugar, and the notation “^mC” refers to a 5-methylcytosine.
“Start site” indicates the 5′-most nucleoside to which the gapmer is targeted in the human gene sequence. “Stop site” indicates the 3′-most nucleoside to which the gapmer is targeted human gene sequence. […] Activity of the modified oligonucleotide may be defined in a different experiment.
Take “1095594 (antisense k[5mC]*kT*dG*dA*dG*dG*dT*dA*dT*dA*dA*e[5mC]*eT*eG*kG*kG) [Compound 1095594]”: the “YAP1 (% UTC)” value is listed as 27 % UTC.
With “1095595 (antisense k[5mC]*kA*d[5mC]*dT*dG*dA*dG*dG*dT*dA*dT*eA*eA*e[5mC]*kT*kG) [Compound 1095595]”, the “YAP1 (% UTC)” value turned out to be 63 % UTC.

The same series, now with this note: Table 44 experiment; SNU-449 cells, 10,000 cells per well, free uptake, 2,000 nM, approximately 48 hours; RTS36584; Yap1 mRNA normalized to RIBOGREEN, relative to untreated control cells.
On to “1095621 (antisense kT*kG*dA*dG*dG*dT*dA*dT*dA*dA*d[5mC]*eT*kG*eG*kG*e[5mC]) [Compound 1095621]”, for which the “YAP1 (% UTC)” value worked out at 22 % UTC.
Same read-out and setting: next, “1095622 (antisense k[5mC]*kT*dG*dA*dG*dG*dT*dA*dT*dA*dA*e[5mC]*kT*eG*kG*eG) [Compound 1095622]”: 44 % UTC; “1095623 (antisense k[5mC]*kA*d[5mC]*dT*dG*dA*dG*dG*dT*dA*dT*eA*kA*e[5mC]*kT*eG) [Compound 1095623]”: 57 % UTC.

Staying with this series, now noted: Table 48; Yap1 mRNA level relative to untreated control; modified oligonucleotides targeting SEQ ID NO.: 1 and 2.
As to “1097224 (antisense k[5mC]*kT*k[5mC]*dT*dT*dA*dT*dA*dT*dG*dG*dT*dT*kT*kT*kG) [Compound 1097224]”, the “YAP1 (% UT)” value is given as 22 % UT.
Consider “1097247 (antisense kT*kA*kA*dA*dG*dT*dG*dT*dA*dT*dG*dT*d[5mC]*kA*kG*kA) [Compound 1097247]”, for which the “YAP1 (% UT)” value is on record as 9 % UT.

The series is the same for the next values; noted with them: Yap1 mRNA, percent of untreated control; modified oligonucleotides targeting SEQ ID NO: 1 and 2; Table 47.
On to “1096369 (antisense kG*kT*kG*d[5mC]*dT*dT*dT*dG*dG*dA*dA*dG*dA*kT*k[5mC]*kT) [Compound 1096369]”, for which the “YAP1 (% UT)” value turned out to be 45 % UT.
The same measure, in the same setting: next, “1097037 (antisense kA*kG*kA*dT*dT*dT*dA*dG*dG*dA*dT*dG*d[5mC]*kA*kT*kG) [Compound 1097037]”: 38 % UT.
Turning to “1097238 (antisense kA*kT*kT*dG*d[5mC]*dA*dA*dT*d[5mC]*dT*dG*dT*d[5mC]*kT*kG*kA) [Compound 1097238]”, the “YAP1 (% UT)” value is on record as 77 % UT.
Same read-out and setting: next, “1197176 (antisense kT*kG*kT*d[5mC]*dT*d[5mC]*dA*dT*dG*d[5mC]*d[5mC]*dT*dT*kA*kT*kA) [Compound 1197176]”: 17 % UT; “1197177 (antisense kA*kT*kT*dG*dT*d[5mC]*dT*d[5mC]*dA*dT*dG*d[5mC]*d[5mC]*kT*kT*kA) [Compound 1197177]”: 15 % UT.
As to “1197178 (antisense kA*kA*kT*dT*dG*dT*d[5mC]*dT*d[5mC]*dA*dT*dG*d[5mC]*k[5mC]*kT*kT) [Compound 1197178]”, the “YAP1 (% UT)” value was determined as 12 % UT.
The same measure, in the same setting: next, “1197179 (antisense kT*kG*kG*dA*dA*dA*dT*dT*dG*dT*d[5mC]*dT*d[5mC]*kA*kT*kG) [Compound 1197179]”: 16 % UT; “1197180 (antisense kA*kT*kG*dG*dA*dA*dA*dT*dT*dG*dT*d[5mC]*dT*k[5mC]*kA*kT) [Compound 1197180]”: 47 % UT; “1197181 (antisense kT*kT*kA*d[5mC]*dA*dT*dT*dA*dG*dG*dA*dA*d[5mC]*kA*kA*kG) [Compound 1197181]”: 87 % UT.
The same measure, in the same setting: next, “1197182 (antisense kT*kT*kT*dT*dA*d[5mC]*dA*dT*dT*dA*dG*dG*dA*kA*k[5mC]*kA) [Compound 1197182]”: 115 % UT.
Still for that read-out and setting: to “1197183 (antisense kA*k[5mC]*kT*dT*dT*dT*dA*d[5mC]*dA*dT*dT*dA*dG*kG*kA*kA) [Compound 1197183]” belongs 41 % UT; to “1197184 (antisense kA*kG*k[5mC]*dA*d[5mC]*dT*dT*dT*dT*dA*d[5mC]*dA*dT*kT*kA*kG) [Compound 1197184]”, 20 % UT.
As to “1197185 (antisense kA*kA*kG*d[5mC]*dA*d[5mC]*dT*dT*dT*dT*dA*d[5mC]*dA*kT*kT*kA) [Compound 1197185]”, the “YAP1 (% UT)” value stood at 55 % UT.
For the substance “1197186 (antisense kT*kT*kA*dA*dG*d[5mC]*dA*d[5mC]*dT*dT*dT*dT*dA*k[5mC]*kA*kT) [Compound 1197186]”, the “YAP1 (% UT)” value is on record as 65 % UT.
